The text below walks through data of article PMC5813235, “Selective inhibition of TRPM2 channel by two novel synthesized ADPR analogues” (Chemical Biology & Drug Design, 2017).

pIC50: −log10 of the molar value. Where only a bound is given, the exact number is not on record here.

What is called pIC50 is −log10 of the IC50, conventionally taken in molar units. A higher pIC50 goes with a low IC50.

The target of one assay is T1, human TRPM2 (Homo sapiens, UniProt O94759).
T1 construct: whole-cell patch clamp
T1 sequence (O94759 whole entry): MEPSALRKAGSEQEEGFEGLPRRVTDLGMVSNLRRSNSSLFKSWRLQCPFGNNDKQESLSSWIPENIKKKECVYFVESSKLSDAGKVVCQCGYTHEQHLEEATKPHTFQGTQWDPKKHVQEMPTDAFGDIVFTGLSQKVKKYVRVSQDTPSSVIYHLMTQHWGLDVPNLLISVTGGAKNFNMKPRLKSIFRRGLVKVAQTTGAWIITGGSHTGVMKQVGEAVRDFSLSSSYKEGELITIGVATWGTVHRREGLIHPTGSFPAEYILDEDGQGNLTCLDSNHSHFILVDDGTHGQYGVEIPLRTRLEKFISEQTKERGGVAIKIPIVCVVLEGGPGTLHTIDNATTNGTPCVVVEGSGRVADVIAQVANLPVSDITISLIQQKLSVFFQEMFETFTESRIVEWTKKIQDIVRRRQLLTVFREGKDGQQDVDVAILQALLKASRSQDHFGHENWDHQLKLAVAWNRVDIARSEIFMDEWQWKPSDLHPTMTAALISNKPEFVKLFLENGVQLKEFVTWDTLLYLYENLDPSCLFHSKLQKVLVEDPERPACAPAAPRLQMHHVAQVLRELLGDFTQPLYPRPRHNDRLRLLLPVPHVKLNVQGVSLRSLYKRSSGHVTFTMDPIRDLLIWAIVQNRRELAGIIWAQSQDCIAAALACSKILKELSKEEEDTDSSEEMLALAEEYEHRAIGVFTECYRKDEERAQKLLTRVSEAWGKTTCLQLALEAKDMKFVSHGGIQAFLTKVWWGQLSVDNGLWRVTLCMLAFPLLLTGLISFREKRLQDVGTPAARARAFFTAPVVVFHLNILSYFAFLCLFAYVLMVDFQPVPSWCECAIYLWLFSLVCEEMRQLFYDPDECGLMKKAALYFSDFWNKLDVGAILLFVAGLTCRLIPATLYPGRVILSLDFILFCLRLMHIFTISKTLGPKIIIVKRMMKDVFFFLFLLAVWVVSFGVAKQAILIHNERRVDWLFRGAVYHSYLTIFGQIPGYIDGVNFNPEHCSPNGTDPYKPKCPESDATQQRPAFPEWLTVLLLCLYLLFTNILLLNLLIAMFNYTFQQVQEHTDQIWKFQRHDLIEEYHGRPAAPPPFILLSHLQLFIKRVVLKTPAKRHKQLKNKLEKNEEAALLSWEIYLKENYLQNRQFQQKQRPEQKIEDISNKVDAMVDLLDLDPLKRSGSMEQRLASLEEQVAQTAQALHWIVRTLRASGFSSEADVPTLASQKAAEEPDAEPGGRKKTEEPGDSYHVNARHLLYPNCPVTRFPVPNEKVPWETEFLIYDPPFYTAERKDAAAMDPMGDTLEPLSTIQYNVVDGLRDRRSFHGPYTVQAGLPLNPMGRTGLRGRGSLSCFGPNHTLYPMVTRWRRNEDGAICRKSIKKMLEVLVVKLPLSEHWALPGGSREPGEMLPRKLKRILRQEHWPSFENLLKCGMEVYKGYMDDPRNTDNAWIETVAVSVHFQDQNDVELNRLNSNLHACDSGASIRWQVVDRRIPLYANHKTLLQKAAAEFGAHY
Briefly: whole-cell patch clamp, current inhibition.
Conditions: not given
It counts as cell-based. (In general: The patch-clamp technique gives a direct electrical read-out from membranes.)
Compound `COC1O[C@H](COP(=O)(O)CP(=O)(O)OC[C@H]2O[C@@H](n3cnc4c(N)ncnc43)[C@@H]3OC(C)(C)O[C@@H]32)[C@H]2OC(C)(C)O[C@@H]12` (stereo partly drawn) [7a, 1″‐O‐methyl‐2″,2′,3″,3′‐O‐isopropylidene‐5′‐methylenediphoribose adenosine] gave a pIC50 of less than 4.00.

`COC1O[C@H](COP(=O)(O)CP(=O)(O)OC[C@H]2O[C@@H](n3cnc4c(N)nc(Cl)nc43)[C@@H]3OC(C)(C)O[C@@H]32)[C@H]2OC(C)(C)O[C@@H]12` (stereo partly drawn) [7b] had a pIC50 of less than 4.00.

The compound `COC1O[C@H](COP(=O)(O)CP(=O)(O)OC[C@H]2O[C@@H](n3cnc4c(N)nc(Br)nc43)[C@@H]3OC(C)(C)O[C@@H]32)[C@H]2OC(C)(C)O[C@@H]12` (stereo partly drawn) [7c] showed a pIC50 of less than 4.00.

`COc1nc(N)c2ncn([C@@H]3O[C@H](COP(=O)(O)CP(=O)(O)OC[C@H]4OC(OC)[C@@H]5OC(C)(C)O[C@H]45)[C@H]4OC(C)(C)O[C@H]43)c2n1` (stereo partly drawn) [7d] gave a pIC50 of less than 4.00.

Take `COC1O[C@H](COP(=O)(O)CP(=O)(O)OC[C@H]2O[C@@H](n3cnc4c(N)nc(N)nc43)[C@@H]3OC(C)(C)O[C@@H]32)[C@H]2OC(C)(C)O[C@@H]12` (stereo partly drawn) [7e]: the pIC50 is less than 4.00.

In the case of `CNc1ncnc2c1ncn2[C@@H]1O[C@H](COP(=O)(O)CP(=O)(O)OC[C@H]2OC(OC)[C@@H]3OC(C)(C)O[C@H]23)[C@H]2OC(C)(C)O[C@H]21` (stereo partly drawn) [7f], the pIC50 is less than 4.00.

Consider `COC1O[C@H](COP(=O)(O)CP(=O)(O)OC[C@H]2O[C@@H](n3cnc4c(N(C)C)ncnc43)[C@@H]3OC(C)(C)O[C@@H]32)[C@H]2OC(C)(C)O[C@@H]12` (stereo partly drawn) [7g], for which the pIC50 was less than 4.00.

Regarding `COC1O[C@H](COP(=O)(O)C(F)(F)P(=O)(O)OC[C@H]2O[C@@H](n3cnc4c(N)ncnc43)[C@@H]3OC(C)(C)O[C@@H]32)[C@H]2OC(C)(C)O[C@@H]12` (stereo partly drawn) [7h], the pIC50 was less than 4.00.

`COC1O[C@H](COP(=O)(O)C(F)(F)P(=O)(O)OC[C@H]2O[C@@H](n3cnc4c(N)nc(Cl)nc43)[C@@H]3OC(C)(C)O[C@@H]32)[C@H]2OC(C)(C)O[C@@H]12` (stereo partly drawn) [7i]: the pIC50 is 5.24.

For the compound `COc1nc(N)c2ncn([C@@H]3O[C@H](COP(=O)(O)C(F)(F)P(=O)(O)OC[C@H]4OC(OC)[C@@H]5OC(C)(C)O[C@H]45)[C@H]4OC(C)(C)O[C@H]43)c2n1` (stereo partly drawn) [7j], the pIC50 was less than 4.00.

`COC1O[C@H](COP(=O)(O)C(F)(F)P(=O)(O)OC[C@H]2O[C@@H](n3cnc4c(N)nc(N)nc43)[C@@H]3OC(C)(C)O[C@@H]32)[C@H]2OC(C)(C)O[C@@H]12` (stereo partly drawn) [7k] gave a pIC50 of less than 4.00.

Turning to `COC1O[C@H](COP(=O)(O)OP(=O)(O)OC[C@H]2O[C@@H](n3cnc4c(N)ncnc43)[C@@H]3OC(C)(C)O[C@@H]32)[C@H]2OC(C)(C)O[C@@H]12` (stereo partly drawn) [7l], the pIC50 is less than 4.00.

The compound `COC1O[C@H](COP(=O)(O)CP(=O)(O)OC[C@H]2O[C@@H](n3cnc4c(N)nc(I)nc43)[C@@H]3OC(C)(C)O[C@@H]32)[C@H]2OC(C)(C)O[C@@H]12` (stereo partly drawn) [7m] showed a pIC50 of less than 4.00.

`COC1O[C@H](COP(=O)(O)C(F)(F)P(=O)(O)OC[C@H]2O[C@@H](n3cnc4c(N)nc(Br)nc43)[C@@H]3OC(C)(C)O[C@@H]32)[C@H]2OC(C)(C)O[C@@H]12` (stereo partly drawn) [7n, 1″‐O‐methyl‐2″,2′,3″,3′‐O‐isopropylidene‐5′‐difluoromethylenediphosphoribose‐2‐bromoadenosine] showed a pIC50 of less than 4.00.

In the case of `COC1O[C@H](COP(=O)(O)C(F)(F)P(=O)(O)OC[C@H]2O[C@@H](n3cnc4c(N)nc(I)nc43)[C@@H]3OC(C)(C)O[C@@H]32)[C@H]2OC(C)(C)O[C@@H]12` (stereo partly drawn) [7o], the pIC50 is less than 4.00.

Regarding `COC1O[C@H](COP(=O)(O)CP(=O)(O)OC[C@H]2O[C@@H](n3cnc4c(N)ncnc43)[C@H](O)[C@@H]2O)[C@H]2OC(C)(C)O[C@@H]12` (stereo partly drawn) [8a, 1″‐O‐methyl‐2″,3″‐O‐isopropylidene‐5′‐methylenediphosphoribose adenosine], the pIC50 is 5.27.

The compound `COC1O[C@H](COP(=O)(O)CP(=O)(O)OC[C@H]2O[C@@H](n3cnc4c(N)nc(Cl)nc43)[C@H](O)[C@@H]2O)[C@H]2OC(C)(C)O[C@@H]12` (stereo partly drawn) [8b] had a pIC50 of less than 4.00.

Consider `COC1O[C@H](COP(=O)(O)C(F)(F)P(=O)(O)OC[C@H]2O[C@@H](n3cnc4c(N)nc(Cl)nc43)[C@H](O)[C@@H]2O)[C@H]2OC(C)(C)O[C@@H]12` (stereo partly drawn) [8c], for which the pIC50 is less than 4.00.

Compound `COC1O[C@H](COP(=O)(O)C(F)(F)P(=O)(O)OC[C@H]2O[C@@H](n3cnc4c(N)nc(Br)nc43)[C@H](O)[C@@H]2O)[C@H]2OC(C)(C)O[C@@H]12` (stereo partly drawn) [8d, 1″‐O‐methyl‐2″,3″‐O‐isopropylidene‐5′‐difluoromethylenediphosphoribose‐2‐bromoadenosine] showed a pIC50 of less than 4.00.

`COC1O[C@H](COP(=O)(O)C(F)(F)P(=O)(O)OC[C@H]2O[C@@H](n3cnc4c(N)nc(I)nc43)[C@H](O)[C@@H]2O)[C@H]2OC(C)(C)O[C@@H]12` (stereo partly drawn) [8e] had a pIC50 of less than 4.00.

In turn, `COC1O[C@H](COP(=O)(O)C(F)(F)P(=O)(O)OC[C@H]2O[C@@H](n3cnc4c(N)nc(Br)nc43)[C@H](O)[C@@H]2O)[C@@H](O)[C@H]1O` (stereo partly drawn) [9a, 1″‐O‐methyl‐difluoromethylenediphosphoribose‐2‐bromoadenosine] gave a pIC50 of less than 4.00.

On to `COC1O[C@H](COP(=O)(O)C(F)(F)P(=O)(O)OC[C@H]2O[C@@H](n3cnc4c(N)nc(I)nc43)[C@H](O)[C@@H]2O)[C@@H](O)[C@H]1O` (stereo partly drawn) [9b], for which the pIC50 is less than 4.00.

In turn, `Nc1nc(Cl)nc2c1ncn2[C@@H]1O[C@H](COP(=O)(O)CP(=O)(O)OC[C@H]2OC(O)[C@H](O)[C@@H]2O)[C@@H](O)[C@H]1O` (stereo partly drawn) [10b] gave a pIC50 of less than 4.00.

In turn, `Nc1nc(Br)nc2c1ncn2[C@@H]1O[C@H](COP(=O)(O)CP(=O)(O)OC[C@H]2OC(O)[C@H](O)[C@@H]2O)[C@@H](O)[C@H]1O` (stereo partly drawn) [10c] gave a pIC50 of less than 4.00.

In turn, `COc1nc(N)c2ncn([C@@H]3O[C@H](COP(=O)(O)CP(=O)(O)OC[C@H]4OC(O)[C@H](O)[C@@H]4O)[C@@H](O)[C@H]3O)c2n1` (stereo partly drawn) [10d] gave a pIC50 of less than 4.00.

As for `Nc1nc(N)c2ncn([C@@H]3O[C@H](COP(=O)(O)CP(=O)(O)OC[C@H]4OC(O)[C@H](O)[C@@H]4O)[C@@H](O)[C@H]3O)c2n1` (stereo partly drawn) [10e], the pIC50 is less than 4.00.

`CNc1ncnc2c1ncn2[C@@H]1O[C@H](COP(=O)(O)CP(=O)(O)OC[C@H]2OC(O)[C@H](O)[C@@H]2O)[C@@H](O)[C@H]1O` (stereo partly drawn) [10f] had a pIC50 of less than 4.00.

As to `CN(C)c1ncnc2c1ncn2[C@@H]1O[C@H](COP(=O)(O)CP(=O)(O)OC[C@H]2OC(O)[C@H](O)[C@@H]2O)[C@@H](O)[C@H]1O` (stereo partly drawn) [10g], the pIC50 is less than 4.00.

In the case of `Nc1ncnc2c1ncn2[C@@H]1O[C@H](COP(=O)(O)C(F)(F)P(=O)(O)OC[C@H]2OC(O)[C@H](O)[C@@H]2O)[C@@H](O)[C@H]1O` (stereo partly drawn) [10h], the pIC50 was less than 4.00.

For `Nc1nc(Cl)nc2c1ncn2[C@@H]1O[C@H](COP(=O)(O)C(F)(F)P(=O)(O)OC[C@H]2OC(O)[C@H](O)[C@@H]2O)[C@@H](O)[C@H]1O` (stereo partly drawn) [10i], the pIC50 is less than 4.00.

`COc1nc(N)c2ncn([C@@H]3O[C@H](COP(=O)(O)C(F)(F)P(=O)(O)OC[C@H]4OC(O)[C@H](O)[C@@H]4O)[C@@H](O)[C@H]3O)c2n1` (stereo partly drawn) [10j] had a pIC50 of less than 4.00.

Compound `Nc1nc(N)c2ncn([C@@H]3O[C@H](COP(=O)(O)C(F)(F)P(=O)(O)OC[C@H]4OC(O)[C@H](O)[C@@H]4O)[C@@H](O)[C@H]3O)c2n1` (stereo partly drawn) [10k] had a negative-log IC50 (pIC50) of less than 4.00.

`Nc1nc(I)nc2c1ncn2[C@@H]1O[C@H](COP(=O)(O)CP(=O)(O)OC[C@H]2OC(O)[C@H](O)[C@@H]2O)[C@@H](O)[C@H]1O` (stereo partly drawn) [10m] had a negative logarithm of the IC50 (pIC50) of less than 4.00.

The compound `Nc1nc(I)nc2c1ncn2[C@@H]1O[C@H](COP(=O)(O)C(F)(F)P(=O)(O)OC[C@H]2OC(O)[C@H](O)[C@@H]2O)[C@@H](O)[C@H]1O` (stereo partly drawn) [10o] showed a pIC50 of less than 4.00.

In turn, `COC1O[C@H](COP(=O)(O)CP(=O)(O)OC[C@H]2O[C@@H](n3cnc4c(N)ncnc43)[C@H](OC)[C@@H]2O)[C@H]2OC(C)(C)O[C@@H]12` (stereo partly drawn) [compound 13, 1″‐O‐methyl‐2″,3″‐O‐isopropylidene‐2′‐methoxy‐5′‐methylenediphoribose adenosine] gave a pIC50 of less than 4.00.

For the compound `CO[C@@H]1[C@H](O)[C@@H](COP(=O)(O)CP(=O)(O)OC[C@H]2OC(O)[C@H](O)[C@@H]2O)O[C@H]1n1cnc2c(N)ncnc21` (stereo partly drawn) [compound 14, 2′‐methoxy‐5′‐methylenediphoribose adenosine], the pIC50 is less than 4.00.

The assay is the same for the next values; noted with them: compound in intracellular (pipette) solution with 0.1 mM ADPR as activator; room temperature; pH 7.3 inside, 7.4 outside.
Consider `Nc1ncnc2c1ncn2[C@@H]1O[C@H](COP(=O)(O)CP(=O)(O)OC[C@H]2OC(O)[C@H](O)[C@@H]2O)[C@@H](O)[C@H]1O` (stereo partly drawn) [10a, methylenediphosphoribose adenosine], for which the pIC50 is less than 4.00.

As to `Nc1nc(Br)nc2c1ncn2[C@@H]1O[C@H](COP(=O)(O)C(F)(F)P(=O)(O)OC[C@H]2OC(O)[C@H](O)[C@@H]2O)[C@@H](O)[C@H]1O` (stereo partly drawn) [10n, difluoromethylenediphosphoribose‐2‐bromoadenosine], the pIC50 was less than 4.00.

The assay is the same for the next values; noted with them: compound in intracellular solution with 0.1 mM ADPR; drawn structure is ADPR itself, the channel activator.
Turning to `Nc1ncnc2c1ncn2[C@@H]1O[C@H](COP(=O)(O)OP(=O)(O)OC[C@H]2OC(O)[C@H](O)[C@@H]2O)[C@@H](O)[C@H]1O` (stereo partly drawn) [10l], the pIC50 is less than 4.00.
